Data on eleven molecules can be found in ChEMBL document CHEMBL1201862, “PubChem BioAssay data set” (2004).

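Interpolation was linear, between the two tested concentrations surrounding the appropriate level; five concentrations were tested over 48 hours in 96-well plates. Here, GI50 denotes the concentration required for 50% inhibition of growth.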 Calls of active or inactive are those of the source. Rule as the data show it: active = GI50 up to about 1.1 µM and inactive = higher. Non-standard residues stand in square brackets, D forms with d. Residues, ends and D or L forms follow the SMILES beside them. ξ: configuration not given here. *: point of attachment. Cbz = O=C(OCc1ccccc1)*; ξK = NCCCCC(N)C(=O)O Where only a bound is given, the exact number is not on record here.

Some test systems named below: BT-549; HCT-116; HCT-15; HOP-62; HOP-92; IGROV-1; M14; MCF7; NCI/ADR-RES; OVCAR-4; OVCAR-8; RPMI-8226; SF-268; SK-MEL-28; SN12C; SR; UACC-257; UO-31; MDA-MB-231; T47D.
Assay in all cases: growth of human tumour cells (NCI), 48 h

Consider `Cc1nc2c(O)cccc2c(=O)[nH]1`, for which the GI50 in the assay on BT-549 was 174 µM (inactive); in the assay on HCT-116, 341 µM (inactive); in the assay on HCT-15 it was 270 µM; with HOP-62 it was 437 µM (inactive); in the assay on HOP-92 it was 845 µM (inactive); in the assay with IGROV-1, 405 µM (inactive). For the same molecule, the GI50 with M14 was 611 µM (inactive); in the assay with MCF7 it was 621 µM (inactive); with NCI/ADR-RES, 548 µM (inactive); in the assay on OVCAR-4, 399 µM (inactive); with OVCAR-8, 437 µM (inactive); with RPMI-8226, 135 µM (inactive). For the same molecule, the GI50 was 467 µM (inactive) with SF-268; > 1000 µM (inactive) in the assay with SK-MEL-28; 532 µM (inactive) in the assay with SN12C; 114 µM (inactive) in the assay with SR; 555 µM (inactive) in the assay with UACC-257; 282 µM (inactive) in the assay with UO-31.
As to `CC(C)(C)OC(=O)n1cc(C2CNC(=O)C23CCC(=O)N3Cc2ccccc2)c2ccccc21` (configuration not stated), the GI50 was 32.7 µM (inactive) with HCT-116; 24.8 µM (inactive) in the assay on HOP-62; 10.9 µM (inactive) with HOP-92; 17.3 µM (inactive) in the assay with IGROV-1; 27.4 µM (inactive) in the assay on M14; 27.9 µM (inactive) with MCF7. Moreover, the GI50 with MDA-MB-231 was 16.8 µM (inactive); in the assay on NCI/ADR-RES, 32.4 µM (inactive); in the assay on OVCAR-4 it was 18.7 µM (inactive); in the assay on RPMI-8226 it was 18.7 µM (inactive); with SF-268, 31.6 µM (inactive); in the assay on SN12C, 16.7 µM (inactive). For the same molecule, the GI50 with SR is 32.4 µM (inactive); in the assay with T47D it was 26 µM (inactive); in the assay with UACC-257, 27 µM (inactive); in the assay on UO-31 it was 22.1 µM (inactive).
Turning to `Nc1cnc2c(c1)c(=O)nc1n2CCS1`, the GI50 in the assay with BT-549 is > 100 µM (inactive); with HCT-116 it was > 100 µM (inactive); in the assay on HCT-15 it was greater than 100 µM; in the assay with HOP-62, > 100 µM (inactive); in the assay with HOP-92, > 100 µM (inactive); with MCF7 it was > 100 µM (inactive). The GI50 in the assay on MDA-MB-231 is 80 µM (inactive); in the assay with NCI/ADR-RES, > 100 µM (inactive); in the assay on OVCAR-4, > 100 µM (inactive); with OVCAR-8, > 100 µM (inactive); in the assay with RPMI-8226, 74 µM (inactive); with SF-268, > 100 µM (inactive). In addition, the GI50 in the assay with SK-MEL-28 was > 100 µM (inactive); in the assay with SN12C it was > 100 µM (inactive); in the assay with UACC-257, > 100 µM (inactive); in the assay on UO-31 it was 64 µM (inactive).
On to `Nc1ccccc1-n1c2c(c3ccccc3c1=O)C(=O)c1ccccc1-2`, for which the GI50 was 0.857 µM (active) with BT-549; 20.8 µM (inactive) in the assay on HCT-116; 38 µM in the assay with HCT-15; 7.14 µM (inactive) in the assay on HOP-62; 16.6 µM (inactive) in the assay with HOP-92; 9.68 µM (inactive) in the assay with IGROV-1. Further, the GI50 in the assay on M14 was 61.7 µM (inactive); with MCF7, 13.3 µM (inactive); with MDA-MB-231, 23.9 µM (inactive); in the assay on NCI/ADR-RES, 14.6 µM (inactive); in the assay on OVCAR-4 it was 4.11 µM (inactive); in the assay on OVCAR-8, 14.5 µM (inactive). In addition, the GI50 was 60.1 µM (inactive) in the assay on RPMI-8226; 8.24 µM (inactive) with SF-268; 36.5 µM (inactive) in the assay with SK-MEL-28; 42 µM (inactive) in the assay with SN12C; 35.9 µM (inactive) in the assay on UACC-257; 11.1 µM (inactive) in the assay with UO-31.
Turning to `Oc1ccc2c(c1)c1c(n2CCN2CCOCC2)-c2ccccc2CC1`, the GI50 in the assay on BT-549 is 33.6 µM (inactive); in the assay on HCT-116, 37.2 µM (inactive); in the assay on HCT-15, 25.6 µM; in the assay on HOP-62 it was 24.7 µM (inactive); in the assay on IGROV-1, 15.1 µM (inactive); in the assay with M14, 26.3 µM (inactive). Moreover, the GI50 with MCF7 is 31.6 µM (inactive); with MDA-MB-231 it was 29.9 µM (inactive); with NCI/ADR-RES, 23.1 µM (inactive); in the assay with OVCAR-8 it was 33.6 µM (inactive); in the assay with RPMI-8226 it was 29.8 µM (inactive); with SF-268, 30 µM (inactive). Further, the GI50 in the assay on SK-MEL-28 is 18.6 µM (inactive); in the assay on SN12C it was 41.8 µM (inactive); in the assay with SR, 24.8 µM (inactive); with UACC-257, 32.9 µM (inactive); in the assay on UO-31 it was 23.6 µM (inactive).
On to `Nc1cc2c3c(cccc3c1)NC2=O`, for which the GI50 was > 100 µM (inactive) with HCT-116; greater than 100 µM in the assay with HCT-15; 22.1 µM (inactive) in the assay with HOP-62; > 100 µM (inactive) with HOP-92; > 100 µM (inactive) in the assay with IGROV-1; 34.6 µM (inactive) with M14. The GI50 was 27.9 µM (inactive) in the assay on MCF7; 70.3 µM (inactive) with MDA-MB-231; > 100 µM (inactive) in the assay with NCI/ADR-RES; > 100 µM (inactive) in the assay with OVCAR-4; > 100 µM (inactive) in the assay with OVCAR-8; > 100 µM (inactive) in the assay with RPMI-8226. For the same molecule, the GI50 is 11.2 µM (inactive) in the assay with SF-268; > 100 µM (inactive) in the assay with SK-MEL-28; 95.1 µM (inactive) with SN12C; > 100 µM (inactive) in the assay with SR; 28 µM (inactive) in the assay on T47D; > 100 µM (inactive) in the assay on UACC-257. Moreover, the GI50 in the assay with UO-31 is 21.2 µM (inactive).
Take `CC(C)[C@@H]1CC[C@@H](C)C[C@H]1OC(=O)/C=C1/C2C=CC(O2)C1C(=O)O[C@@H]1C[C@H](C)CC[C@H]1C(C)C` (some centres not stated): the GI50 in the assay on HCT-116 is > 100 µM (inactive); in the assay on HCT-15, greater than 100 µM; in the assay with HOP-62 it was > 100 µM (inactive); with HOP-92, > 100 µM (inactive); in the assay with IGROV-1, > 100 µM (inactive); in the assay with M14, > 100 µM (inactive). Further, the GI50 was 97.5 µM (inactive) in the assay on MCF7; > 100 µM (inactive) in the assay with MDA-MB-231; > 100 µM (inactive) in the assay on NCI/ADR-RES; > 100 µM (inactive) in the assay on OVCAR-4; > 100 µM (inactive) with OVCAR-8; > 100 µM (inactive) in the assay with RPMI-8226. In addition, the GI50 is > 100 µM (inactive) in the assay with SF-268; > 100 µM (inactive) in the assay with SK-MEL-28; > 100 µM (inactive) with SN12C; 41.7 µM (inactive) in the assay on SR; 45.3 µM (inactive) in the assay with T47D; 46.2 µM (inactive) in the assay with UACC-257. In addition, the GI50 in the assay on UO-31 was > 100 µM (inactive).
Regarding `N#CCCC(CC#N)N1CCN(CCO)CC1` (configuration not stated), the GI50 with HCT-116 was > 100 µM (inactive); in the assay on HCT-15, greater than 100 µM; in the assay on HOP-62 it was > 100 µM (inactive); in the assay on HOP-92, > 100 µM (inactive); in the assay with IGROV-1, > 100 µM (inactive); in the assay on M14, > 100 µM (inactive). Moreover, the GI50 in the assay with MCF7, in the assay with MDA-MB-231, in the assay with NCI/ADR-RES, in the assay with OVCAR-4, in the assay with OVCAR-8 and in the assay on RPMI-8226 was > 100 µM (inactive) in each case. For the same molecule, the GI50 in the assay on SF-268, in the assay with SK-MEL-28, with SN12C, in the assay with SR, with T47D and in the assay with UACC-257 was > 100 µM (inactive) in each case. Also, the GI50 with UO-31 was > 100 µM (inactive).
On to `COC12c3ccccc3-c3ccccc3C1[C@@H](C(=O)O)[C@H]2C(=O)O` (some centres not stated), for which the GI50 is greater than 10 µM in the assay on HCT-15; > 10 µM (inactive) with HOP-62; > 10 µM (inactive) in the assay with HOP-92; > 10 µM (inactive) with IGROV-1; > 10 µM (inactive) in the assay with M14; > 10 µM (inactive) in the assay on MCF7. The GI50 in the assay on MDA-MB-231, in the assay on NCI/ADR-RES, with OVCAR-4, in the assay on OVCAR-8, with RPMI-8226 and in the assay with SF-268 was > 10 µM (inactive) in each case. Further, the GI50 in the assay on SK-MEL-28, in the assay with SN12C, with SR, in the assay with T47D, with UACC-257 and in the assay with UO-31 was > 10 µM (inactive) each time.
For `C=C1C(O)C[C@H](OC(C)=O)[C@]2(C)C1C(OC(C)=O)[C@]1(C(C)(C)O)CC(O)C(C)=C1[C@@H](OC(=O)c1ccccc1)C2OC(C)=O` (some centres not stated), the GI50 was > 10 µM (inactive) in the assay on HCT-116; greater than 10 µM with HCT-15; > 10 µM (inactive) in the assay on HOP-92; > 10 µM (inactive) in the assay on IGROV-1; > 10 µM (inactive) in the assay with M14; > 10 µM (inactive) in the assay with MCF7. For the same molecule, the GI50 with MDA-MB-231, with NCI/ADR-RES, with OVCAR-4, in the assay with OVCAR-8, with RPMI-8226 and in the assay with SF-268 was > 10 µM (inactive) in each case. The GI50 with SK-MEL-28, with SN12C, in the assay on SR, with T47D, in the assay on UACC-257 and with UO-31 was > 10 µM (inactive) each time.
With `NCCCCC(NC(=O)OCc1ccccc1)C(=O)NCC(N)=O` (configuration not stated) (Cbz-[ξK]-Gly-NH2), the GI50 with HCT-116 was > 100 µM (inactive); in the assay on HCT-15, greater than 100 µM; in the assay with HOP-62 it was > 100 µM (inactive); with HOP-92 it was > 100 µM (inactive); with IGROV-1, > 100 µM (inactive); in the assay on M14, > 100 µM (inactive). The GI50 in the assay on MCF7, with MDA-MB-231, with NCI/ADR-RES, in the assay on OVCAR-4, in the assay on OVCAR-8 and in the assay on RPMI-8226 was > 100 µM (inactive) in each case. Besides, the GI50 in the assay on SF-268, in the assay on SK-MEL-28, in the assay with SN12C, with SR, with T47D and in the assay with UACC-257 was > 100 µM (inactive) throughout. Further, in the assay with UO-31, the GI50 is > 100 µM (inactive).
